Measured values taken from patent US12168664B2, “Triazolopyrimidines, their preparation and use” (THE TRUSTEES OF COLUMBIA UNIVERSITY IN THE CITY OF NEW YORK, priority 2018, dated 2024).
Values joined by “and” are separate entries in the source; they are usually repeats but may differ in a detail not shown here. Identical values can stand only once.

Tests used:
RBP4-TTR interaction = RBP4-TTR interaction (Homo sapiens (Human), UniProt P02753); test: HTRF (TR-FRET) assay for antagonists of retinol-induced RBP4-TTR interaction; format: biochemical; details: in the presence of 1 μM retinol
From the text: TR-FRET Assay for Retinol-Induced RBP4-TTR Interaction
Binding of a desired RBP4 antagonist displaces retinol and induces hindrance for RBP4-TTR interaction resulting in the decreased FRET signal (FIG. 7). Bacterially expressed MBP-RBP4 and untagged TTR were used in this assay. For the use in the TR-FRET assay, the maltose binding protein (MBP)-tagged human RBP4 fragment (amino acids 19-201) was expressed in the Gold(DE3)pLysS E. coli strain (Stratagene) using the pMAL-c4x vector. Following cell lysis, recombinant RBP4 was purified from the soluble fraction using the ACTA FPLC system (GE Healthcare) equipped with the 5-ml the MBP Trap HP column. Human untagged TTR was purchased from Calbiochem. Untagged TTR was labeled directly with Eu^3+ Cryptate-NHS using the HTRF Cryptate Labeling kit from CisBio following the manufacturer's recommendations. HTRF assay was performed in white low volume 384 well plates (Greiner-Bio) in a final assay volume of 16 μl per well. […] Titration of test compounds in this assay was conducted in the presence of 1 μM retinol. […] TR-FRET signal was measured in the SpectraMax M5e Multimode Plate Reader (Molecular Device). […] The TR-FRET signal was expressed as the ratio of fluorescence intensity: Flu665/Flu620×10,000.
The compounds listed below were tested in two in vitro assays, RBP4 binding (SPA) and retinol-dependent RBP4-TTR interaction (HTRF) (Table 1).

A2E = A2E (bisretinoid) accumulation in eyes of Abca4−/− mice, HPLC of eyecups; format: in vivo; details: 35 mg/kg daily oral in chow, 8 weeks, p=0.0007
Procedure: (§1) Effect of 7a on accumulation of N-retinylidene-N-retinylethanolamine (A2E) in Eyes of the Abca4^−/− Mice
Animal protocols were approved by the Institutional Animal Care and Use Committee of Columbia University and complied with guidelines set forth by The Association for Research in Vision and Ophthalmology. […] Abca4^−/− (knockout) and C57BL/6J (wild-type control) mice were raised under 12 h on-off cyclic lighting with an in-cage illuminance of 30-50 lux. For long-term oral dosing 7a was formulated into Purina 5035 rodent chow at Research Diets, Inc. (New Brunswick, NJ) to ensure consistent 35 mg/kg daily oral dosing. Animals were administered the AKR-XI-85-containing chow for 8 weeks. […] Serum RBP4 was measured using the RBP4 (mouse/rat) dual ELISA kit (AdipoGen) following the manufacturer's instructions.
After the completion of dosing, animals were euthanized and posterior eyecups consisting of sclera, choroid and RPE were prepared from enucleated eyes according to the standard techniques. […] A previously established HPLC method (Journal of Biological Chemistry, 275, 29354-29360) was utilized for quantifying A2E in mouse eyecups. Quantitation of A2E was conducted by manually integrating the A2E peak (approximately 12-min elution time) which was identified by the co-elution with the synthetic A2E standard and by characteristic absorbance spectrum. […]

CYP2C9 = CYP2C9 (Homo sapiens (Human), UniProt P11712); test: CYP inhibition, fluorescent, CYP2C9; format: in vitro ADME
Chain of CYP2C9 (P11712 whole entry, species assumed): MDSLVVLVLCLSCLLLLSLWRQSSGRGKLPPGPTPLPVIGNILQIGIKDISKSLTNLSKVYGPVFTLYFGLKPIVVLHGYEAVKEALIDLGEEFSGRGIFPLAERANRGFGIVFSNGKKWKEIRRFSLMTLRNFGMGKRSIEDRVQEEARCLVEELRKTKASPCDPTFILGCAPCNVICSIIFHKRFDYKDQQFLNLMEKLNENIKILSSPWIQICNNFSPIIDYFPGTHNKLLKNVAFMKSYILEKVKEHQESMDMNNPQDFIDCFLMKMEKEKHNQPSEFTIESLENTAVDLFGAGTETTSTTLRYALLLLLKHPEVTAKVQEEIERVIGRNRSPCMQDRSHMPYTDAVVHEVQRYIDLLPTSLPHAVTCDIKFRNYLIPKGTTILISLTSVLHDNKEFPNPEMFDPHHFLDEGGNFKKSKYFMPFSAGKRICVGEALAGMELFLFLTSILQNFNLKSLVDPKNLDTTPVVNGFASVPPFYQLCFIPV
Procedure: (§2) The compounds listed below were tested in various metabolic stability and CYP inhibition assays.

CYP2C19 = CYP2C19 (Homo sapiens (Human), UniProt P33261); test: CYP inhibition, fluorescent, CYP2C19; format: in vitro ADME
Chain of CYP2C19 (P33261 whole entry, species assumed): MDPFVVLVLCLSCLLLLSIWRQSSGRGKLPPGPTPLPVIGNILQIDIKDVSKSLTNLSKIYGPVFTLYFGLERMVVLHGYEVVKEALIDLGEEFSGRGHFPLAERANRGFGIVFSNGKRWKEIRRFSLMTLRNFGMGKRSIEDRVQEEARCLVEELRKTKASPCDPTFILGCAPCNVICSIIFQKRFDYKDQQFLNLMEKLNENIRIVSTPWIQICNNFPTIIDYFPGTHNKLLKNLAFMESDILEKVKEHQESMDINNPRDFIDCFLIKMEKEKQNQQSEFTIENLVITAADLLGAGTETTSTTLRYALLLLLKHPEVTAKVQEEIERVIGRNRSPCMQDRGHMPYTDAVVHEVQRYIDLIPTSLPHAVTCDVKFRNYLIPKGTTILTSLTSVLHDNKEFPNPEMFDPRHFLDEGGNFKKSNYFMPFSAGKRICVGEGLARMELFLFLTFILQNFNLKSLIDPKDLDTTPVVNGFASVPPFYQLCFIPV
Procedure: as §2

serum RBP4 [1] = target: T1, serum RBP4 (Mus musculus (Mouse), UniProt Q00724); test: Serum RBP4 reduction in Balb/c mice after a single oral administration; format: in vivo
Procedure: Pharmacodynamic Studies of 7a and 7p in Balb/c Mice Following a Single Oral Administration
Animal protocols were approved by the Institutional Animal Care and Use Committee of Columbia University and complied with guidelines set forth by The Association for Research in Vision and Ophthalmology. Compounds were prepared as a suspension in 0.9% NaCl, 2% Tween 80 for oral administration. Compounds were administered to Balb/c mice in a volume of 100 μL through oral gavage. The doses used were 15 mg/kg, 25 mg/kg and 35 mg/kg for 7a while two doses, 25 mg/kg and 35 mg/kg, were tested for DENG-31(FFB-0000082). Blood samples were collected at pre-dose and 1 hr, 2 hr, 4 hr, 6 hr, 8 hr, and 24 hr timepoints. Whole blood was drawn into a centrifuge tube and was let clot at room temperature for 30 min followed by centrifugation at 2,000×g for 15 minutes at +4° C. to collect serum. Serum RBP4 was measured using the RBP4 (mouse/rat) dual ELISA kit (AdipoGen) following the manufacturer's instructions.
In order to attain this objective, the effect of oral compound administration was studied in mice. Three doses of compound 7a and two doses of 7p were tested in Balb/c mice assay for reduction of serum RBP4.

serum RBP4 [2] = target: T1, serum RBP4; test: Serum RBP4 in Abca4−/− mice after 8-week dosing in chow; format: in vivo; details: 35 mg/kg daily oral in chow, 8 weeks
Procedure: as §1
Animal protocols were approved by the Institutional Animal Care and Use Committee of Columbia University and complied with guidelines set forth by The Association for Research in Vision and Ophthalmology. […] Abca4^−/− (knockout) and C57BL/6J (wild-type control) mice were raised under 12 h on-off cyclic lighting with an in-cage illuminance of 30-50 lux. For long-term oral dosing 7a was formulated into Purina 5035 rodent chow at Research Diets, Inc. (New Brunswick, NJ) to ensure consistent 35 mg/kg daily oral dosing. Animals were administered the AKR-XI-85-containing chow for 8 weeks. Blood samples were collected at baseline and at the end of the dosing period for serum RBP4 measurements. Whole blood was drawn into a centrifuge tube and was let clot at room temperature for 30 min followed by centrifugation at 2,000×g for 15 minutes at +4° C. to collect serum. Serum RBP4 was measured using the RBP4 (mouse/rat) dual ELISA kit (AdipoGen) following the manufacturer's instructions.
To assess pre-clinical efficacy of 7a in the mouse Abca4^−/− model, the compound was formulated into a standard mouse chow to provide the daily oral dosing of 35 mg/kg. Long-term 8-week dosing of the compound formulated into a chow was conducted in Abca4^−/− mice. […]

CYP3A4 = CYP3A4 (Homo sapiens (Human), UniProt P08684); test: CYP inhibition, fluorescent, CYP3A4; format: in vitro ADME
Chain of CYP3A4 (P08684 whole entry, species assumed): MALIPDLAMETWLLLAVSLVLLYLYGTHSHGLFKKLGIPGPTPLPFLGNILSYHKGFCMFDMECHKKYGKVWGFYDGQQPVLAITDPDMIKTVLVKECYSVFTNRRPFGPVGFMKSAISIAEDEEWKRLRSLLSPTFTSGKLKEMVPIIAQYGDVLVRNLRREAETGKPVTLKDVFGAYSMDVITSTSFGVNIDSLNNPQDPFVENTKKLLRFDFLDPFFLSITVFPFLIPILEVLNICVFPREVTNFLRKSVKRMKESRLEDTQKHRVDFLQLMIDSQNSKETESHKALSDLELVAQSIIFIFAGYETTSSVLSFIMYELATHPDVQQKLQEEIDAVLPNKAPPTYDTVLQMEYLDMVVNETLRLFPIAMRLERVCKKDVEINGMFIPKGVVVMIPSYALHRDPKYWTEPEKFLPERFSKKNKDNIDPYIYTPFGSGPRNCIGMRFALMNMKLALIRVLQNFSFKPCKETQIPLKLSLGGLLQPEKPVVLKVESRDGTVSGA
Procedure: as §2

[3] = Metabolic stability in liver microsomes (HLM); format: in vitro ADME, human
Procedure: as §2

O=C(c1nc2ncccn2n1)N1C[C@H]2C[C@@H](c3ccccc3C(F)(F)F)C[C@H]2C1 [Compound 7a]
IC50 (RBP4-TTR interaction): 209 nM and 194 nM and 240 nM
A2E reduction vs control chow-treated Abca4−/− animals (A2E): 69%
IC50 (CYP2C9): > 100000 nM
IC50 (CYP2C19): > 20000 nM
maximum serum RBP4 reduction (serum RBP4 [1]; single 15 mg/kg PO, at 4 hr): 83%
maximum serum RBP4 reduction (serum RBP4 [1]; single 25 mg/kg PO, at 6 hr timepoint): 86%
maximum serum RBP4 reduction (serum RBP4 [1]; single 35 mg/kg PO, at 8 hr timepoint): 89%
serum RBP4 reduction at end of 8-week treatment (serum RBP4 [2]): Approximately 70%
IC50 (CYP3A4): > 100000 nM
Metabolic stability in liver microsomes: % Remaining at 30 min, HLM [3]: 85%
